# In publication PMC9098912, “Molecular basis for inhibiting human glucose transporters by exofacial inhibitors” (Nature Communications, 2022):
# How the values were obtained:
# WT GLUT3 = molecular target: T1, WT GLUT3 (Homo sapiens, UniProt P11169, N43T); assay: Microscale thermophoresis (MST) binding assay; set-up: Figure 1e middle: MST binding curve, Mean / Figure 1e right: MST binding curve, Mean / Figure 2c: MST binding curve, Mean: unit not given here; conditions: for Figure 2c: MST binding curve, Mean: GLUT3, log[SA47]
# T1 construct: His10 (N); made in house; host or cells: Sf9 insect cells (baculovirus)
# T1 sequence (P11169 1-496 N43T): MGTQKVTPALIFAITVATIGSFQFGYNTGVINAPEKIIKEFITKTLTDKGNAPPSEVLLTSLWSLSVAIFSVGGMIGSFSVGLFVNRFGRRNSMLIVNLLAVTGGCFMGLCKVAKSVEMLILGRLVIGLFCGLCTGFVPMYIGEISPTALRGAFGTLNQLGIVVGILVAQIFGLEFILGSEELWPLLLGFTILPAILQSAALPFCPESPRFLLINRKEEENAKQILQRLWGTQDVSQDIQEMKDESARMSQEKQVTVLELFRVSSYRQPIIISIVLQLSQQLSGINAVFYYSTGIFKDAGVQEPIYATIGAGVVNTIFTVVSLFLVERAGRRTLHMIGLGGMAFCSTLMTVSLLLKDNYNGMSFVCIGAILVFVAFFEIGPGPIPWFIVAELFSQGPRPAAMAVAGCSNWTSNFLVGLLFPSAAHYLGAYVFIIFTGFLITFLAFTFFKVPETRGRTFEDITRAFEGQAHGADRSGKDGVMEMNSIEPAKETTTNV
# Experimental: (§1) All mutants were generated by standard PCR-based strategy.
# (§2) Inhibitors with serial dilutions were mixed with indicated protein. […] MST analyses were conducted on a Monolith NT. […] The MST data was analyzed by Monolith NT.115.
# [1] = molecular target: T2, GLUT3exo (GLUT3 S64W and I305W) (Homo sapiens, UniProt P11169, I305W/N43T/S64W); assay: biochemical; type: binding; conditions: for Figure 2c: MST binding curve, Mean: GLUT3 dTrp mutant, log[SA47]
# T2 construct: His10 (N); made in house; host or cells: Sf9 insect cells (baculovirus)
# T2 sequence (P11169 whole entry N43T/S64W/I305W): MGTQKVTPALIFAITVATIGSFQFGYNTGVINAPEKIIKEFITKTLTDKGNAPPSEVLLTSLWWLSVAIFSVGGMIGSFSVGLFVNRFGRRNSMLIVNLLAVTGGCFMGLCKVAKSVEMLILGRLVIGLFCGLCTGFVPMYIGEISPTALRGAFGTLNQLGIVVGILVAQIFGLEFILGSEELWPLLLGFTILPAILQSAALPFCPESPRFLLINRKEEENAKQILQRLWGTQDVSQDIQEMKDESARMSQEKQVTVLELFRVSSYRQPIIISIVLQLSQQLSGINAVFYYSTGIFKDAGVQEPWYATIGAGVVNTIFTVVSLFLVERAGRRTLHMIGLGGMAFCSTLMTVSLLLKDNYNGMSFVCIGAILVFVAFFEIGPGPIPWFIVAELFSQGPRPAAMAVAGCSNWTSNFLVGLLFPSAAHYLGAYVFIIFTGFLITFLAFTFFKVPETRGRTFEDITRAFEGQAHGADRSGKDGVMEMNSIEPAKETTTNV
# Experimental: Following the same principle for the engineering of XylE-WW, we introduced two Trp substitutions, S64W and I305W, on the extracellular segments of TM2 and TM8 of GLUT3, respectively. This variant will be referred to as GLUT3exo hereafter (Fig. 1a). The two bulky substituents were expected to trap GLUT3 in an outward-facing conformation.
# as §1, §2
# GLUT1 = molecular target: T3, GLUT1 (Homo sapiens, UniProt P11166, N45T); assay: Microscale thermophoresis (MST) binding assay; conditions: for Figure 2c: MST binding curve, Mean: log[SA47]
# T3 construct: made in house
# T3 sequence (P11166 1-492 N45T): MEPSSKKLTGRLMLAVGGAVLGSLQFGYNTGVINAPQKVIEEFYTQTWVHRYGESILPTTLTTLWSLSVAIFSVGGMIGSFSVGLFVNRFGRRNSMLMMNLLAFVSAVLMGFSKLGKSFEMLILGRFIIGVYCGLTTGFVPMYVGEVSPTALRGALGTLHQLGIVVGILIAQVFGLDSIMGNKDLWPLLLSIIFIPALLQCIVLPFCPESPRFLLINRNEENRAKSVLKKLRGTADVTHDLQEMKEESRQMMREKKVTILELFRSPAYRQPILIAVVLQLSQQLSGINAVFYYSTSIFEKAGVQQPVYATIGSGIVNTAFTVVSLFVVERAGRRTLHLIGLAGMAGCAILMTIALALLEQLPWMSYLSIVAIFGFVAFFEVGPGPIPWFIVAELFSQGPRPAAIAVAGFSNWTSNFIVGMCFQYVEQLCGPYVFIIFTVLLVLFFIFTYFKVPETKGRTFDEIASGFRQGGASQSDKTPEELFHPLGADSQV
# Experimental: as §1, §2
# GLUT3 F70A = GLUT3 F70A (Homo sapiens, UniProt P11169, F70A/N43T); assay: biochemical
# Sequence of GLUT3 F70A (P11169 whole entry N43T/F70A, the tested form may be a part): as the sequence (P11169 whole entry N43T/S64W/I305W) above, with W64S, F70A, W305I counted along it
# Experimental: The recombinant human glucose transporter GLUT1(N45T) and E. coli (strain O157:H7) D-xylose:proton symporter XylE were expressed and purified as described previously[17],[26]. […] In brief, the cDNA of human GLUT3 was cloned into a modified pFastBac vector (Invitrogen) fused with an N-terminal His10 tag. All mutants were generated by standard PCR-based strategy.
# as §2
smiles,measurement,setting,value
COC(=O)CCNCc1ccccc1-n1ncc2c(N3CCN(c4cc(F)ccc4OC)CC3)ncnc21 [SA47],"Figure 2c: MST binding curve, Mean",WT GLUT3; M -4.30103,93.1623
same,"Figure 2c: MST binding curve, Mean",WT GLUT3; M -4.60206,97.5688
same,"Figure 2c: MST binding curve, Mean",WT GLUT3; M -4.90309,103.147
same,"Figure 2c: MST binding curve, Mean",WT GLUT3; M -5.20412,93.0436
same,"Figure 2c: MST binding curve, Mean",WT GLUT3; M -5.50515,92.2406
same,"Figure 2c: MST binding curve, Mean",WT GLUT3; M -5.80618,84.0843
same,"Figure 2c: MST binding curve, Mean",WT GLUT3; M -6.10721,63.9676
same,"Figure 2c: MST binding curve, Mean",WT GLUT3; M -6.40824,36.3211
same,"Figure 2c: MST binding curve, Mean",WT GLUT3; M -7.0103,13.9692
same,"Figure 2c: MST binding curve, Mean",WT GLUT3; M -7.31133,8.298
same,"Figure 2c: MST binding curve, Mean",WT GLUT3; M -7.61236,1.1474
same,"Figure 2c: MST binding curve, Mean",WT GLUT3; M -7.91339,0.7084
same,"Figure 2c: MST binding curve, Mean",WT GLUT3; M -8.21442,2.7164
same,"Figure 2c: MST binding curve, Mean",WT GLUT3; M -8.51545,2.4811
same,"Figure 2c: MST binding curve, Mean",WT GLUT3; M -8.81648,1.1039
same,Kd,WT GLUT3; WT GLUT3,317 ± 47.2 nM
same,Kd,[1],314 ± 80.7 nM
same,"Figure 2c: MST binding curve, Mean",[1]; M -4.60206,107.845
same,"Figure 2c: MST binding curve, Mean",[1]; M -4.90309,92.9206
same,"Figure 2c: MST binding curve, Mean",[1]; M -5.20412,96.8426
same,"Figure 2c: MST binding curve, Mean",[1]; M -5.50515,85.0858
same,"Figure 2c: MST binding curve, Mean",[1]; M -5.80618,74.1558
same,"Figure 2c: MST binding curve, Mean",[1]; M -6.10721,60.9811
same,"Figure 2c: MST binding curve, Mean",[1]; M -6.40824,46.911
same,"Figure 2c: MST binding curve, Mean",[1]; M -6.70927,34.266
same,"Figure 2c: MST binding curve, Mean",[1]; M -7.31133,-0.7525
same,"Figure 2c: MST binding curve, Mean",[1]; M -7.61236,4.6276
same,"Figure 2c: MST binding curve, Mean",[1]; M -7.91339,1.8858
same,"Figure 2c: MST binding curve, Mean",[1]; M -8.21442,1.3955
same,"Figure 2c: MST binding curve, Mean",[1]; M -8.51545,4.478
same,"Figure 2c: MST binding curve, Mean",[1]; M -8.81648,-6.1144
same,Kd,GLUT1,310 ± 58.2 nM
same,"Figure 2c: MST binding curve, Mean",GLUT1; M -4.90309,102.821
same,"Figure 2c: MST binding curve, Mean",GLUT1; M -5.20412,94.0406
same,"Figure 2c: MST binding curve, Mean",GLUT1; M -5.50515,85.0371
same,"Figure 2c: MST binding curve, Mean",GLUT1; M -5.80618,78.9623
same,"Figure 2c: MST binding curve, Mean",GLUT1; M -6.10721,63.517
same,"Figure 2c: MST binding curve, Mean",GLUT1; M -6.40824,44.2639
same,"Figure 2c: MST binding curve, Mean",GLUT1; M -6.70927,30.0958
same,"Figure 2c: MST binding curve, Mean",GLUT1; M -7.0103,11.0052
same,"Figure 2c: MST binding curve, Mean",GLUT1; M -7.31133,3.8567
same,"Figure 2c: MST binding curve, Mean",GLUT1; M -7.61236,3.527
same,"Figure 2c: MST binding curve, Mean",GLUT1; M -7.91339,-1.6488
same,"Figure 2c: MST binding curve, Mean",GLUT1; M -8.21442,-3.8284
same,"Figure 2c: MST binding curve, Mean",GLUT1; M -8.51545,7.0621
same,"Figure 2c: MST binding curve, Mean",GLUT1; M -8.81648,2.3819
same,Kd,GLUT3 F70A,1500 ± 200 nM
